Experimental data taken from the supplement of paper PMC10307832.

Legend:
Assay in all cases: relative viability (nuclei count vs DMSO), 5 days (fraction); higher = more cells survive
MLN4924 + Foretinib = compound: NS(=O)(=O)OC[C@@H]1C[C@@H](n2ccc3c(N[C@H]4CCc5ccccc54)ncnc32)C[C@@H]1O [MLN4924] + COc1cc2c(Oc3ccc(NC(=O)C4(C(=O)Nc5ccc(F)cc5)CC4)cc3F)ccnc2cc1OCCCN1CCOCC1 [Foretinib] (partner 0.25 µM)
Outline: (§1)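 Lung cancer cell lines in 1536-well plates got either a single drug or a fixed anchor-drug dose together with five library-drug doses (not always all listed) in √10 steps, by pin tool, on the day after seeding. Nuclei were counted after 5 days, and relative viability is the treated-to-vehicle ratio of nuclei counts. Values are medians of duplicate plates.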

MLN4924 + Dasatinib = compound: NS(=O)(=O)OC[C@@H]1C[C@@H](n2ccc3c(N[C@H]4CCc5ccccc54)ncnc32)C[C@@H]1O [MLN4924] + Cc1nc(Nc2ncc(C(=O)Nc3c(C)cccc3Cl)s2)cc(N2CCN(CCO)CC2)n1 [Dasatinib] (partner 0.075 µM)
Outline: as §1

GSK126 + AZD7762 = compound: CC[C@H](C)N1C=C(C2=C(C=C(C=C21)C3=CN=C(C=C3)N4CCNCC4)C(=O)NCC5=C(C=C(NC5=O)C)C)C [GSK126] + NC(=O)Nc1cc(-c2cccc(F)c2)sc1C(=O)N[C@H]1CCCNC1 [AZD7762] (partner 0.2 µM)
Outline: as §1

Carboplatin + Pemetrexed = compound: C1CC(C1)(C(=O)O)C(=O)O.[NH2-].[NH2-].[Pt+2] [Carboplatin] + Nc1nc2[nH]cc(CCc3ccc(C(=O)N[C@@H](CCC(=O)O)C(=O)O)cc3)c2c(=O)[nH]1 [Pemetrexed] (partner 0.2 µM)
Outline: as §1

Row | Cell Line | relative viability (MLN4924 + Foretinib; first compound 0.04 µM) | relative viability (MLN4924 + Foretinib; first compound 0.1265 µM) | relative viability (MLN4924 + Foretinib; first compound 0.4 µM) | relative viability (MLN4924 + Foretinib; first compound 1.265 µM) | relative viability (MLN4924 + Foretinib; first compound 4 µM) | relative viability (MLN4924 + Dasatinib; first compound 0.04 µM) | relative viability (MLN4924 + Dasatinib; first compound 0.1265 µM) | relative viability (MLN4924 + Dasatinib; first compound 0.4 µM) | relative viability (MLN4924 + Dasatinib; first compound 1.265 µM) | relative viability (MLN4924 + Dasatinib; first compound 4 µM) | relative viability (GSK126 + AZD7762; first compound 0.08 µM) | relative viability (GSK126 + AZD7762; first compound 0.253 µM) | relative viability (GSK126 + AZD7762; first compound 0.8 µM) | relative viability (GSK126 + AZD7762; first compound 2.53 µM) | relative viability (GSK126 + AZD7762; first compound 8 µM) | relative viability (Carboplatin + Pemetrexed; first compound 0.08 µM) | relative viability (Carboplatin + Pemetrexed; first compound 0.253 µM) | relative viability (Carboplatin + Pemetrexed; first compound 0.8 µM) | relative viability (Carboplatin + Pemetrexed; first compound 2.53 µM) | relative viability (Carboplatin + Pemetrexed; first compound 8 µM)
1 | LCLC-97TM1 | 0.97 | 0.424 | 0.69 | 0.127 | 0.123 | 1.01 | 0.683 | 0.767 | 0.113 | 0.104 | 0.307 | 0.312 | 0.228 | 0.267 | 0.24 | 0.171 | 0.164 | 0.155 | 0.161 | 0.175
2 | LK-2 | 1.35 | 0.676 | 0.621 | 0.265 | 0.222 | 0.28 | 0.261 | 0.285 | 0.162 | 0.196 | 0.402 | 0.364 | 0.401 | 0.623 | 0.293 | 0.336 | 0.314 | 0.273 | 0.233 | 0.289
3 | CAL-12T | 1.01 | 1.03 | 0.463 | 0.422 | 0.181 | 0.371 | 0.336 | 0.332 | 0.143 | 0.105 | 0.751 | 0.562 | 0.622 | 0.554 | 0.589 | 1.21 | 1.34 | 1.13 | 1.12 | 1.14
4 | NCI-H322M | 1.12 | 1.22 | 0.801 | 0.284 | 0.357 | 0.311 | 0.655 | 0.693 | 0.27 | 0.289 | 0.538 | 0.531 | 0.536 | 0.647 | 0.53 | 0.688 | 0.601 | 0.613 | 0.594 | 0.616
5 | NCI-H2126 | 1.14 | 0.87 | 1.08 | 0.335 | 0.267 | 0.647 | 0.617 | 0.55 | 0.201 | 0.23 | 1.13 | 0.988 | 0.974 | 0.945 | 1.06 | 0.759 | 0.64 | 0.724 | 0.698 | 0.647
6 | NCI-H596 | 0.847 | 1.04 |  | 0.65 | 0.58 | 0.623 | 0.594 |  | 0.644 | 0.744 | 1.12 | 0.904 | 1.2 | 1.12 | 0.988 | 0.533 | 0.473 | 0.548 | 0.464 | 0.475
7 | LU99A | 0.531 | 0.365 | 0.314 | 0.188 | 0.236 | 0.507 | 0.485 | 0.321 | 0.132 | 0.16 | 0.37 | 0.254 | 0.338 | 0.346 | 0.392 | 0.174 | 0.157 | 0.188 | 0.18 | 0.16
8 | NCI-H1666 | 1.02 | 0.696 | 0.541 | 0.304 | 0.346 | 0.898 | 0.781 | 0.503 | 0.238 | 0.28 | 0.861 | 0.8 | 0.82 | 0.936 | 0.813 | 0.876 | 0.857 | 0.845 | 0.846 | 0.819
